Experimental data: PMC8270301, “Novel Facet of an Old Dietary Molecule? Direct Influence of Caffeine on Glucose and Biogenic Amine Handling by Human Adipocytes” (Molecules, 2021)

Key:
[1] = biological target: T1, primary amine oxidase (SSAO/PrAO/VAP-1) (Homo sapiens, UniProt Q16853); test: Amplex Red hydrogen peroxide assay of benzylamine oxidation in tissue homogenate, Lineweaver-Burk analysis; type: biochemical
T1 construct: gene AOC3; native enzyme in homogenates of human subcutaneous adipose tissue
T1 sequence (Q16853 1-763): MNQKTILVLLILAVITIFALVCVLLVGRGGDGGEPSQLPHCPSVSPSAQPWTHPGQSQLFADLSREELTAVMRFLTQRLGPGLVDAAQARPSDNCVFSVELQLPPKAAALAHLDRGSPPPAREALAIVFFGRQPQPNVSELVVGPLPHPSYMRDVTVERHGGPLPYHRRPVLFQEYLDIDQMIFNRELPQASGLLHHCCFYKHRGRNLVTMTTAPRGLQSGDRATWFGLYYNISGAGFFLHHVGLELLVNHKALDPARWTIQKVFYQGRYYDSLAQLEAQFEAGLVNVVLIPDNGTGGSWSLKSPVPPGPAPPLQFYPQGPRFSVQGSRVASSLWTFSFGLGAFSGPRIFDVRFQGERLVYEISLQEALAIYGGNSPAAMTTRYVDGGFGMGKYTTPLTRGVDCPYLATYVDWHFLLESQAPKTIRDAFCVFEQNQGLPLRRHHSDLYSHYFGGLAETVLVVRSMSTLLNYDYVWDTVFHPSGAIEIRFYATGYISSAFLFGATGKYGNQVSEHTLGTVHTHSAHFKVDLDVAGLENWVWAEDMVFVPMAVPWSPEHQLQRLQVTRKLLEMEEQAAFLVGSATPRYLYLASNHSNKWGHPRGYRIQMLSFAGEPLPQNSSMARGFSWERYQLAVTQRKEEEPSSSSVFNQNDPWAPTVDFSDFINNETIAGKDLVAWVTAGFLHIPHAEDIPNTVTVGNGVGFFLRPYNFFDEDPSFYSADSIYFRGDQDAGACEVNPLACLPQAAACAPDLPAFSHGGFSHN

[2] = biological target: T1, primary amine oxidase (SSAO/PrAO/VAP-1); test: Amplex Red hydrogen peroxide release in tissue homogenate, Lineweaver-Burk plot; type: cell-based

| Compound | Ki [1] [µM] | Amplex Red hydrogen peroxide release in tissue homogenate, Lineweaver-Burk plot [2] |
| --- | --- | --- |
| Cn1c(=O)c2c(ncn2C)n(C)c1=O [caffeine, 1,3,7-trimethylxanthine] | 880 |  |
| NCc1ccccc1 [benzylamine] |  | Lineweaver–Burk plot of the inhibition of benzylamine oxidation by increasing doses of caffeine |
